Reference: EP3741762A1, “OXALAMIDO-SUBSTITUTED TRICYCLIC INHIBITORS OF HEPATITIS B VIRUS” (priority 2019, dated 2020)

tested on: HBV; test: Anti-HBV activity in vitro: quantification of extracellular HBV DNA by direct qPCR in HepAD38 cells; type: cell-based; conditions: Hepatitis B virus, tetracycline-free medium, 96 hours at 37°C, reported as EC50 threshold value, read-out: HBV inh EC50
Excerpt: HepAD38 cell line (Ladner et al., Antimicrob Agents Chemother, 1997, 41, 1715-20) was used for HBV inhibition assays. HepAD38 is a subclone, derived from Hepatoblastoma cell line HepG2 (ATCC® Number: HB-8065™), that expresses HBV genome under the transcriptional control of a tetracycline-responsive promoter in a TET-OFF system: addition of tetracycline (TET) or doxycycline suppresses HBV replication, while its removal switches on the process allowing HBV viral particles release in the cell supernatant. HepAD38 cell line is maintained in DMEM/F12, supplemented with 10% of fetal bovine serum, 1% of glutamine, 1% of penicillin/streptomycin, 0.4 mg/ml G418 and 0,3 ug/ml tetracycline. For the HBV inhibition assay, doxycycline-free medium is used in order to allow virion production.
HBV inhibition activity in vitro was performed in 96 multiwell plates. During the initial (primary) screening, compounds were first tested in triplicates at concentrations of 0.02 µM, 0.1 µM, 0.5µM and 1µM. For selected compounds, an 8-point dose-response curve was obtained using 1:2 serial dilutions (starting from 0.01µM, 0.1µM, 0.4µM or 5 µM, depending on the degree of inhibition observed during the primary screening). From the dose-response curves, half maximal effective concentration (EC50) could be calculated (see also below).
In more detail, compounds - typically dissolved in DMSO stock solutions - were diluted to 2x the final desired concentration in 100 µl of the above medium (without doxycycline) and plated in three replicates in the 96-well plates.
Simultaneously, HepAD38 cells - extensively pre-washed in tetracycline-free medium in order to induce HBV production - were suspended at 2^∗10^4 cells in 100 µl of tetracycline-free medium and added to each well of the plate, to yield a final assay volume of 200 µl DMSO - used for stock solutions and compounds dilutions - which was always present in the assays at a final concentration of 0.5%.
Plates were then incubated 96 hours at 37°C and then subjected to cell viability assays and extracellular HBV quantification, in order to evaluate both the cytotoxic potential and the antiviral activity of compounds. Cytotoxicity was assessed by a commercial fluorescence assay that measures the metabolic activity of cells, directly related to cell viability (Cell Titer Blue, Promega). Anti-HBV activity was evaluated by quantification of extracellular HBV DNA with direct qPCR. In particular, supernatant was collected and centrifuged for cell debris clarification, viral DNA was extracted from virions by addition of lysis buffer (1 mM 1,4-dithiothreitol, 0.2% sodium dodecyl sulphate) and incubated at 95°C for 10 min. Samples were then diluted 1:40 and real time PCR amplification was performed with SYBR green assay (Power SYBR™ Green PCR Master Mix-Thermo Fisher Scientific) and specific HBV primer (HBV-DF:5'-[…]-3' (SEQ ID No. 1), HBV-DR:5'-[…]-3' (SEQ ID No.2)).
Antiviral activity data for each compound are reported as EC50 threshold value (see Table 1 legend). Excel and Graphpad Prism programs are typically used for data elaboration and EC50 calculation.

| Compound | EC50 [nM] |
| --- | --- |
| Cc1cc(NC(=O)c2c3c(cn2C)S(=O)(=O)N[C@H]2CN(C(=O)C(=O)NC4(C)COC4)C[C@H]2CS3)ccc1F [Example E42, (3aR,10aR)-N-(4-fluoro-3-methylphenyl)-7-methyl-2-(2-((3-methyloxetan-3-yl)amino)-2-oxoacetyl)-2,3,3a,4,10,10a-hexahydro-1H,7H-dipyrrolo[3,4-c:3',4'-g][1,6,2]dithiazocine-8-carboxamide 5,5-dioxide] | < 500 |
| Cc1cc(NC(=O)c2c3c(cn2C)S(=O)(=O)N[C@H]2CN(C(=O)C(=O)NCC4CC4)C[C@H]2CO3)ccc1F [Example E20, (3aR,10aR)-2-(2-((cyclopropylmethyl)amino)-2-oxoacetyl)-N-(4-fluoro-3-methylphenyl)-7-methyl-2,3,3a,4,10,10a-hexahydro-1H,7H-dipyrrolo[3,4-b:3',4'-f][1,4,5]oxathiazocine-8-carboxamide 5,5-dioxide] | < 500 |
| Cc1cc(NC(=O)c2c3c(cn2C)S(=O)(=O)N[C@@H]2CN(C(=O)C(=O)NC4(C)COC4)C[C@@H]2CO3)ccc1F (relative stereo) [Example E2, cis-N-(4-fluoro-3-methylphenyl)-7-methyl-2-(2-((3-methyloxetan-3-yl)amino)-2-oxoacetyl)-2,3,3a,4,10,10a-hexahydro-1H,7H-dipyrrolo[3,4-b:3',4'-f][1,4,5]oxathiazocine-8-carboxamide 5,5-dioxide] | < 500 |
| Cc1cc(NC(=O)c2c3c(cn2C)S(=O)(=O)N[C@H]2CN(C(=O)C(=O)NC4(C)CC4)C[C@H]2CO3)ccc1F [Example E18, (3aR,10aR)-N-(4-fluoro-3-methylphenyl)-7-methyl-2-(2-((1-methylcyclopropyl)amino)-2-oxoacetyl)-2,3,3a,4,10,10a-hexahydro-1H,7H-dipyrrolo[3,4-b:3',4'-f][1,4,5]oxathiazocine-8-carboxamide 5,5-dioxide] | < 500 |
| Cc1cc(NC(=O)c2c3c(cn2C)S(=O)(=O)N[C@H]2CN(C(=O)C(=O)NC4CC4)C[C@H]2CO3)ccc1F [Example E8, (3aR,10aR)-2-(2-(cyclopropylamino)-2-oxoacetyl)-N-(4-fluoro-3-methylphenyl)-7-methyl-2,3,3a,4,10,10a-hexahydro-1H,7H-dipyrrolo[3,4-b:3',4'-f][1,4,5]oxathiazocine-8-carboxamide 5,5-dioxide] | < 500 |
| Cc1cc(NC(=O)c2c3c(cn2C)S(=O)(=O)N[C@H]2CN(C(=O)C(=O)NC4CC(F)(F)C4)C[C@H]2CO3)ccc1F [Example E14, (3aR,10aR)-2-(2-((3,3-difluorocyclobutyl)amino)-2-oxoacetyl)-N-(4-fluoro-3-methylphenyl)-7-methyl-2,3,3a,4,10,10a-hexahydro-1H,7H-dipyrrolo[3,4-b:3',4'-f][1,4,5]oxathiazocine-8-carboxamide 5,5-dioxide] | < 500 |
| CN(C)C(=O)C(=O)N1C[C@@H]2COc3c(cn(C)c3C(=O)Nc3cc(F)c(F)c(F)c3)S(=O)(=O)N[C@@H]2C1 (relative stereo) [Example E1, cis-2-(2-(dimethylamino)-2-oxoacetyl)-7-methyl-N-(3,4,5-trifluorophenyl)-2,3,3a,4,10,10a-hexahydro-1H,7H-dipyrrolo[3,4-b:3',4'-f][1,4,5]oxathiazocine-8-carboxamide 5,5-dioxide] | < 500 |
| Cc1cc(NC(=O)c2c3c(cn2C)S(=O)(=O)N[C@H]2CN(C(=O)C(=O)NC4(C(F)(F)F)CC4)C[C@H]2CO3)ccc1F [Example E19, (3aR,10aR)-N-(4-fluoro-3-methylphenyl)-7-methyl-2-(2-oxo-2-((1-(trifluoromethyl)cyclopropyl)amino)acetyl)-2,3,3a,4,10,10a-hexahydro-1H,7H-dipyrrolo[3,4-b:3',4'-f][1,4,5]oxathiazocine-8-carboxamide 5,5-dioxide] | < 500 |
| Cc1cc(NC(=O)c2c3c(cn2C)S(=O)(=O)N[C@H]2CN(C(=O)C(=O)NC4(C(F)(F)F)CCC4)C[C@H]2CO3)ccc1F [Example E33, (3aR,10aR)-N-(4-fluoro-3-methylphenyl)-7-methyl-2-(2-oxo-2-((1-(trifluoromethyl)cyclobutyl)amino)acetyl)-2,3,3a,4,10,10a-hexahydro-1H,7H-dipyrrolo[3,4-b:3',4'-f][1,4,5]oxathiazocine-8-carboxamide 5,5-dioxide] | < 500 |
| Cc1cc(NC(=O)c2c3c(cn2C)S(=O)(=O)N[C@H]2CN(C(=O)C(=O)NCC(C)C)C[C@H]2CO3)ccc1F [Example E16, (3aR,10aR)-N-(4-fluoro-3-methylphenyl)-2-(2-(isobutylamino)-2-oxoacetyl)-7-methyl-2,3,3a,4,10,10a-hexahydro-1H,7H-dipyrrolo[3,4-b:3',4'-f][1,4,5]oxathiazocine-8-carboxamide 5,5-dioxide] | < 500 |
| Cc1cc(NC(=O)c2c3c(cn2C)S(=O)(=O)N[C@H]2CN(C(=O)C(N)=O)C[C@H]2CS3)ccc1F [Example E34, (3aR,10aR)-2-(2-amino-2-oxoacetyl)-N-(4-fluoro-3-methylphenyl)-7-methyl-2,3,3a,4,10,10a-hexahydro-1H,7H-dipyrrolo[3,4-c:3',4'-g][1,6,2]dithiazocine-8-carboxamide 5,5-dioxide] | < 500 |
| Cn1cc2c(c1C(=O)Nc1ccc(F)c(C#N)c1)OC[C@@H]1CN(C(=O)C(=O)NC3(C)COC3)C[C@@H]1NS2(=O)=O [Example E6, (3aR,10aR)-N-(3-cyano-4-fluorophenyl)-7-methyl-2-(2-((3-methyloxetan-3-yl)amino)-2-oxoacetyl)-2,3,3a,4,10,10a-hexahydro-1H,7H-dipyrrolo[3,4-b:3',4'-f][1,4,5] oxathiazocine-8-carboxamide 5,5-dioxide] | > 500 |
| Cc1cc(NC(=O)c2c3c(cn2C)S(=O)(=O)N[C@H]2CN(C(=O)C(=O)NC4CC(F)(F)C4)C[C@H]2CS3)ccc1F [Example E41, (3aR,10aR)-2-(2-((3,3-difluorocyclobutyl)amino)-2-oxoacetyl)-N-(4-fluoro-3-methylphenyl)-7-methyl-2,3,3a,4,10,10a-hexahydro-1H,7H-dipyrrolo[3,4-c:3',4'-g][1,6,2]dithiazocine-8-carboxamide 5,5-dioxide] | < 500 |
| Cc1cc(NC(=O)c2c3c(cn2C)S(=O)(=O)N[C@H]2CN(C(=O)C(=O)N4CC(F)(F)C4)C[C@H]2CO3)ccc1F [Example E29, (3aR,10aR)-2-(2-(3,3-difluoroazetidin-1-yl)-2-oxoacetyl)-N-(4-fluoro-3-methylphenyl)-7-methyl-2,3,3a,4,10,10a-hexahydro-1H,7H-dipyrrolo[3,4-b:3',4'-f][1,4,5]oxathiazocine-8-carboxamide 5,5-dioxide] | < 500 |
| Cn1cc2c(c1C(=O)Nc1cc(F)c(F)c(F)c1)OC[C@H]1CN(C(=O)C(N)=O)C[C@H]1NS2(=O)=O (relative stereo) [Example E13, cis-2-(2-amino-2-oxoacetyl)-7-methyl-N-(3,4,5-trifluorophenyl)-2,3,3a,4,10,10a-hexahydro-1H,7H-dipyrrolo[3,4-b:3',4'-f][1,4,5]oxathiazocine-8-carboxamide 5,5-dioxide] | < 500 |
| Cc1cc(NC(=O)c2c3c(cn2C)S(=O)(=O)N[C@H]2CN(C(=O)C(=O)NC(C)(C)C(F)(F)F)C[C@H]2CO3)ccc1F [Example E32, (3aR,10aR)-N-(4-fluoro-3-methylphenyl)-7-methyl-2-(2-oxo-2-((1,1,1-trifluoro-2-methylpropan-2-yl)amino)acetyl)-2,3,3a,4,10,10a-hexahydro-1H,7H-dipyrrolo[3,4-b:3',4'-f][1,4,5]oxathiazocine-8-carboxamide 5,5-dioxide] | < 500 |
| Cc1cc(NC(=O)c2c3c(cn2C)S(=O)(=O)N[C@H]2CN(C(=O)C(=O)NC4(C)CC4)C[C@H]2CS3)ccc1F [Example E40, (3aR,10aR)-N-(4-fluoro-3-methylphenyl)-7-methyl-2-(2-((1-methylcyclopropyl)amino)-2-oxoacetyl)-2,3,3a,4,10,10a-hexahydro-1H,7H-dipyrrolo[3,4-c:3',4'-g][1,6,2]dithiazocine-8-carboxamide 5,5-dioxide] | < 500 |
